In patent US20080176957A1, “PRESERVATIVE COMPOSITIONS COMPRISING RENEWABLY-BASED, BIODEGRADABLE 1,3-PROPANEDIOL” (priority 2006, published 2008):
Read-outs that look alike come from different tables or passages of the source.

How the values were obtained:
[1] = Solubility of compounds and common preservatives in Bio-PDO and PG; assay type: physicochemical
Source text: Cosmetic preservative blends need a broad range of protection against gram positive and negative bacteria, yeasts and molds. In cosmetics, solubility is also important. Clear solutions are preferred to emulsions, suspensions or dispersions. […] Other preservatives or a mixture of preservatives can be used with Bio-PDO™, such as choloracetamide sodium benzoate, 5-bromo-5-nitro-1,3-dioxane, butyl paraben, ethyl paraben, isobutyl paraben, iodopropynyl butylcarbamate, and 2,4,4′-trichloro-2′-[…].

[2] = test system: humans; assay: Human repeated patch test for irritation or delayed contact hypersensitivity (Example 2); assay type: in vivo; details: diluted with D.I. water to 5%, 25% and 50%, nine 24-hour induction patches and challenge
Source text: The purpose of this study was to determine the potential of biologically-derived 1,3-propanediol, diluted to concentrations of 5%, 25%, and 50%, to cause irritation or delayed contact hypersensitivity in humans. The method employed in carrying out this test, described below, was similar to that described in “Appraisal of the Safety of Chemicals in Foods, Drugs and Cosmetics” by […] and published by the Association of Food and Drug Officials of the United States, the entirety of which is incorporated herein by reference.
Test Panel: The test involved the application of the test article to the upper arms of a group of 112 volunteer panelists. The panelists ranged from 16 to 71 years of age. One hundred and five panelists completed the study. Prior to the initiation of the study, all panelists were in good general health and free of any visible skin disease or anomaly in the area to be patched. Each panelist was required to read, understand and sign an informed consent statement. […]

[3] = test system: humans; assay: Second human study of irritation or delayed contact hypersensitivity, Bio-PDO vs PG (Example 3); assay type: in vivo
Source text: A second study to determine the potential of biologically-derived 1,3-propanediol and PG, diluted to concentrations of 25%, 50%, and 75% (pH 4, 7 and 9 tested) to cause irritation or delayed contact hypersensitivity in humans.

[4] = test system: skin; details: background statement, Kinnunen et al. 1991; cited from earlier work

OCCCCO [1,4-Butanediol]
Solubility in Bio-PDO ™ ([1]; 50 Wt % in Bio-PDO (Table 1)): Soluble
Solubility in PG ([1]; 50 Wt % in PG (Table 1)): Soluble

OCCCO [Bio-PDO™, 1,3-propanediol]
Skin irritation, fatiguing or sensitization [2]: not to be a skin irritant, fatiguing agent, or sensitizing agent
Dermal irritation or sensitization reactions ([3]; humans, 25, 50 and 75% at pH 7, or 75% at pH 4 and 9): did not produce any clinically significant dermal irritation or sensitization reactions

CC(C)O [IPA]
Solubility in Bio-PDO ™ ([1]; 50 Wt % in Bio-PDO (Table 1)): Soluble
Solubility in PG ([1]; 50 Wt % in PG (Table 1)): Soluble

CCO [Ethanol]
Solubility in Bio-PDO ™ [1]: Soluble
Solubility in PG [1]: Soluble

OCC(O)CO [Glycerol]
Solubility in Bio-PDO ™ [1]: Soluble
Solubility in PG [1]: Soluble

Oc1cc(Cl)ccc1Oc1ccc(Cl)cc1Cl [Irgasan]
Solubility in Bio-PDO ™ ([1]; 20 Wt % in Bio-PDO (Table 2)): Soluble
Solubility in PG ([1]; 20 Wt % in PG (Table 2)): Soluble

CC(O)CO (centres unmarked) [PG, propylene glycol, reference compound]
Dermal irritation ([3]; in vivo, pH 7): produced dermal irritation at all three concentrations
Skin irritation and sensitization [4]: is a skin irritant and skin sensitizer

O=C(O)c1ccccc1O [Salicyclic acid]
Solubility in Bio-PDO ™ ([1]; 10 Wt % in Bio-PDO (Table 2)): Soluble
Solubility in PG ([1]; 10 Wt % in PG (Table 2)): Soluble
Solubility in Bio-PDO ™ ([1]; 15 Wt % in Bio-PDO (Table 2)): Soluble
Solubility in PG ([1]; 15 Wt % in PG (Table 2)): Soluble
Solubility in Bio-PDO ™ ([1]; 20 Wt % in Bio-PDO (Table 2)): Not Soluble
Solubility in PG ([1]; 20 Wt % in PG (Table 2)): Soluble
